ChEMBL document CHEMBL3044628, “Okaramine C, a New Insecticidal Indole Alkaloid from Penicillium simplicissimum” (1991)

System: Bombyx mori
Assay: Insecticidal activity against po dosed larvae of Bombyx mori assessed per gram of diet
Assay type: functional

Row | Structure (SMILES) | LD50 [mg/kg]
1 | CO[C@@H]1[C@]2(O)C(=O)N3/C=C\C(C)(C)c4[nH]c5ccccc5c4/C=C\3C(=O)N2[C@]23[C@H](C)C(C)(C)N2c2ccccc2[C@]13O [OKARAMINE B] | 0.2
2 | C=CC(C)(C)c1[nH]c2ccccc2c1CC1NC(=O)[C@H]2C[C@@]3(O)c4ccccc4N(C(C)(C)C=C)[C@H]3N2C1=O (stereo partly drawn) [OKARAMINE C] | 7
3 | C=CC(C)(C)N1c2ccccc2[C@]2(O)C[C@@H]3C(=O)N4/C=C\C(C)(C)c5[nH]c6ccccc6c5/C=C\4C(=O)N3[C@H]12 [OKARAMINE A] | 8
